This passage reports Kd and Ki results from article doi:10.1101/2021.11.20.466133v3 (biorxiv, 2022).

Assay [1] addresses T1, MsDisA (Mycolicibacterium smegmatis, UniProt A0R564). Kind of assay: biochemical.
The target of assay [2] is T1, MsDisA. The conditions noted are these: substrate inhibition by ATP; pH 7.5; 37 °C; 5 mM MgCl2.
Another assay concerns the target MsPDE (Mycolicibacterium smegmatis, UniProt A0QVM9). Nature of the assay: HPLC AMP formation, substrate inhibition model. In kind it is biochemical. The conditions noted are these: substrate inhibition by c-di-AMP; pH 7.5; 5 mM MgCl2.

T1 sequence (A0R564 whole entry): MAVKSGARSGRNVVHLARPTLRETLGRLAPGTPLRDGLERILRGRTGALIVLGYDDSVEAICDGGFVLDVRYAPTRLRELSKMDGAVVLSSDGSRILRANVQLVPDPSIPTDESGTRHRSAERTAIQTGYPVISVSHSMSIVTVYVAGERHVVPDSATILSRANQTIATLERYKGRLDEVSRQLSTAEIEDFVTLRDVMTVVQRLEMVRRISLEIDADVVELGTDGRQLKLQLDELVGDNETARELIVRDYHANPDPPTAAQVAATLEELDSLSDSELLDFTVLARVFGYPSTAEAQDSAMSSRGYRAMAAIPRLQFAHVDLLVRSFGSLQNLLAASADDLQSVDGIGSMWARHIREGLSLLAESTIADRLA
MsPDE, sequence (A0QVM9 1-340): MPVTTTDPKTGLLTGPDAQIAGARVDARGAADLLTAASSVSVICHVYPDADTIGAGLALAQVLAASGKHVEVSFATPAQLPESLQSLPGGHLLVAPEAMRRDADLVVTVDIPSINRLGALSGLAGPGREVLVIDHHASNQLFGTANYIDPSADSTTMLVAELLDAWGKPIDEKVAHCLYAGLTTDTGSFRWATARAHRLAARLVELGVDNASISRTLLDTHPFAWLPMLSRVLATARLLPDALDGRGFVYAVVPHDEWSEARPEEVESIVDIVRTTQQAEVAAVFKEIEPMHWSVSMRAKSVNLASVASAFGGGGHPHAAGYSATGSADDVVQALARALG

What is called Kd is the equilibrium constant for the complex coming apart. Read a low Kd as a tighter complex. On MsDisA [1], `Nc1ncnc2c1ncn2[C@@H]1O[C@H](COP(=O)(O)OP(=O)(O)OP(=O)(O)O)[C@@H](O)[C@H]1O` [ATP] gave a Kd of 2.4 µM. This molecule yielded a Ki at MsDisA [2] of 1430 µM.
Take `Nc1ncnc2c1ncn2[C@@H]1O[C@@H]2COP(=O)(O)O[C@H]3[C@@H](O)[C@H](n4cnc5c(N)ncnc54)O[C@@H]3COP(=O)(O)O[C@H]2[C@H]1O` [c-di-AMP]: the Ki at MsPDE was found to be 1120 µM.
